The record followed here is patent US20070191451A1, “USE OF BENZO-HETEROARYL SULFAMIDE DERIVATIVES AS NEUROPROTECTIVE AGENTS” (priority 2006, published 2007).

Test [1] concerns Rat Cerebral Cortical Cultures. As to the kind of experiment: Cell Titer Glo/Cell Viability in vitro assay, rat cerebral cortical cultures, insult with 150 μM H2O2. The format is cell-based. The settings on record: for Cell Titer Glo/Cell Viability, Mean: mean of 3 plates. Here is the method: (§1) The assay was run according to the procedure listed within the insert of the kit purchased from Promega (see attachment at the end of the application).
(§2) Cell cultures were prepared as follows. Dissociated hippocampal and cortical cell cultures were established from embryonic day 18 rat fetuses. The fetuses were removed via cesarean section from pregnant dams (Harlan Sprague-Dawley) anesthetized with halothane according to the AVMA Panel on Euthanasia. Pups were decapitated and the brains were removed and placed in Hank's Balanced Salt solution (1×HBSS; Gibco, Rockville, Md.). The hippocampi and cortices were dissected out and pooled according to tissue-type. Tissue was trypsinized for 15 min (1 mg/ml trypsin-HBSS; Worthington, Lakewood, N.J.), rinsed with fresh HBSS, incubated in trypsin inhibitor (1 mg/ml; Sigma, St. Louis, Mo.) for 5 min, rinsed again with fresh HBSS and then triturated in 1 ml fresh HBSS with a fire-polished glass pipette. Dissociated cells were seeded at 10,000 cells/well onto poly-D-lysine coated 96-well plates (BD BioScience, Bedford, Mass.) containing 100 ul/well Eagle's Minimal Essential Media (MEM; Gibco) supplemented with 26 mM NaHCO3 (Sigma), 40 mM glucose (Sigma), 20 mM KCl (Sigma), 1 mM sodium pyruvate (Sigma), 10% (v/v) heat-inactivated fetal bovine serum (Hyclone, Logan, Utah), and 0.001% gentamicin sulfate (Sigma) (pH 7.4). Serum-free cultures were plated and maintained in Neurobasal medium+B27 supplement (Gibco). Cells were allowed to attach for 24h in a humidified 37° C. 5% CO2 incubator before experimental treatment.
(§3) Test compounds were prepared as follows: A 10 mM stock in DMSO of each compound was diluted 1:50 in DPBS rendering a final stock of 200 μM. […] Equal amounts of vehicle or diluted compound were added to each culture well.
(§4) A 30% stock solution of hydrogen peroxide (H2O2; Sigma) was diluted with DPBS 1:100 to yield a […] stock. Five microliters of vehicle or H2O2 stock solution was added to each 100 ul culture well to yield a final concentration of 150 uM.
(§5) Note that in the data listed below, each plate was run in triplicate for a total of n=9.
For orientation: Cellular ATP, detected with luciferase, serves as a proxy for viable cell number.

In the next test the test system is Rat Hippocampal Cultures. As to the kind of experiment: Cell Titer Glo/Cell Viability in vitro assay, rat hippocampal cultures, insult with 150 μM H2O2. The settings on record: for Cell Titer Glo/Cell Viability / Cell Titer Glo/Cell Viability, Mean: insult with 150 μM H2O2; for Cell Titer Glo/Cell Viability, Mean: mean of 3 plates, n=9. The format is cell-based. Here is the method:
as §1, §2, §3, §4, §5

[2] abbreviates: compound 0.1 μM, Plate 1 (run in triplicate).
The mark [3] stands for this setting: compound 0.1 μM, Plate 2 (run in triplicate).
The mark [4] stands for this setting: compound 0.1 μM, Plate 3 (run in triplicate).
[5] abbreviates: compound 1 μM, Plate 1 (run in triplicate).
The mark [6] stands for this setting: compound 1 μM, Plate 2 (run in triplicate).
Setting [7] is: compound 1 μM, Plate 3 (run in triplicate).
Where [8] appears, read: compound 10 μM, Plate 1 (run in triplicate).
[9] abbreviates: compound 10 μM, Plate 2 (run in triplicate).
[10] abbreviates: compound 10 μM, Plate 3 (run in triplicate).

Each structure is given as a SMILES string.

As for `NS(=O)(=O)NCc1csc2ccc(F)cc12` [Compound #8, N-[(5-fluorobenzo[b]thien-3-yl)methyl]-sulfamide], the “Cell Titer Glo/Cell Viability” value is reported as 16 in test [1] (setting [2]); 43 in test [1] (setting [3]); 19 in test [1] (setting [4]); 13 in test [1] (setting [5]); 24 in test [1] (setting [6]); 12 in test [1] (setting [7]). For the same compound, the figures for the “Cell Titer Glo/Cell Viability” value in test [1] (setting [8]), in test [1] (setting [9]) and in test [1] (setting [10]) were 22, 27 and 30, respectively. The “Cell Titer Glo/Cell Viability, Mean” value in test [1] (compound 0.1 μM, n=9) is given as 26; in test [1] (compound 1 μM, n=9) it was 16; in test [1] (compound 10 μM, n=9, *p < 0.05 (Kruskal-Wallis, Dunn's post-hoc)), 26*.
As to `NS(=O)(=O)NCc1csc2ccccc12` [Compound #1, N-(benzo[b]thien-3-ylmethyl)-sulfamide], the “protecting neurons from death and/or damage from oxidative stress or oxidative injury” value with Rat Hippocampal Cultures (conclusion in words from the data of Tables 4 and 5, H2O2 insult) is given as “effective at protecting neurons from death and/or damage”. The “Cell Titer Glo/Cell Viability” value in the test on Rat Hippocampal Cultures (setting [2]) turned out to be 28; in the test with Rat Hippocampal Cultures (setting [3]), 16; in the test with Rat Hippocampal Cultures (setting [4]) it was 17; with Rat Hippocampal Cultures (setting [5]) it was 30; in the test with Rat Hippocampal Cultures (setting [6]) it was 12; in the test with Rat Hippocampal Cultures (setting [7]), 13. In addition, the “Cell Titer Glo/Cell Viability” value with Rat Hippocampal Cultures (setting [8]) is on record as 41; in the test on Rat Hippocampal Cultures (setting [9]), 46; with Rat Hippocampal Cultures (setting [10]), 45. Further, the “Cell Titer Glo/Cell Viability, Mean” value with Rat Hippocampal Cultures (compound 0.1 μM) is listed as 20; in the test on Rat Hippocampal Cultures (compound 1 μM), 18; in the test with Rat Hippocampal Cultures (compound 10 μM, **p < 0.01 (Kruskal-Wallis, Dunn's post-hoc)) it was 44**.
